Reference: patent US12129279B2, “Antimicrobial peptides and use of the same for treating microbial infections” (TZU CHI UNIVERSITY, priority 2022, dated 2024)
Residues, ends and D or L forms follow the SMILES beside them. No end group written: not given here.

Columns and labels:
Format in all cases: cell-based
[1] = system: MDRAB (multidrug-resistant Acinetobacter baumannii); details: MDRAB (multidrug-resistant, 2 h)
Protocol: (§1) The antimicrobial activities of dK1, dK2, dK3, dK4 and dK5 were determined by bactericidal assays on laboratory strains of MRSA (methicillin-resistant Staphylococcus aureus) and MDRAB (multidrug-resistant Acinetobacter baumannii).
(§2) The bacteria were inoculated in Luria broth (LB) solid medium (BioShop Canada Inc., Ontario, Canada) (Focus Bioscience, Murrarrie, Australia). Single colonies were collected and inoculated in 8 mL of liquid medium, and the cultures were incubated overnight at 37° C., 200 rpm. On the next day, the bacterial cultures were centrifuged with a centrifuger (KUBOTA2800, KUBOTA, Osakashi, Japan) at 2500 rpm for 5 minutes at room temperature, and the supernatants were discarded. The pellets were mixed and suspended with 1×PBS (phosphate-buffered saline, PBS, pH 7.4) (PROTECH, Taipei, Taiwan). The step was repeated twice to wash the bacterial cells. After the washing step, the bacterial cells were then re-suspended in 1×PBS, and the concentrations of bacterial cells were adjusted to 1×10^7 CFU/mL.
(§3) In the bactericidal assay, 2700 μL of 1× PBS were mixed with 300 μL 1×10^7 CFU/mL bacteria suspension mentioned as negative control, and each of the solutions of dK1 to dK5 at different concentrations was mixed with 300 μL 1×10^7 CFU/mL bacteria suspension and 2700 μL of 1× PBS. The mixtures were incubated at 37° C., 200 rpm for 2 hours. After incubation, 100 μL of each of the control group samples and the experimental group samples were collected and put in Eppendorf centrifuge tubes, and followed by 10-fold serial dilution with 900 μL of 1× PBS. After the serial dilution, 100 μL of the sample from each group was inoculated on the LB solid medium. The experiments were carried out in triplicate for each group, and the LB solid media with samples were cultured at 37° C. for at least 18 hours. After overnight incubation at 37° C., bacterial colonies were counted. Bacterial survival rates of each group were determined as follows. % survival rate=[(Colonies formed from peptide-treated sample)/(Colonies formed from negative control)]×100%

[2] = system: MRSA (methicillin-resistant Staphylococcus aureus); details: 2 h
Protocol: as §1, §2, §3

in vitro = details: human
Protocol: For measuring the cytotoxicity of the antimicrobial peptides dK1, dK2 and dK3, a colorimetric 3-bis-(2-methoxy-4-nitro-5-sulfophenyl)-2H-tetrazolium-5-carboxanilide (XTT) dye reduction assay was employed. The cytotoxicity of the antimicrobial peptides of the invention were tested on Huh-7 and HeLa cells. The culture medium for Huh-7 is Dulbecco's modified eagle medium, DMEM (Gibco™, NY, USA) containing 10% fetal bovine serum (FBS) (Gibco™, NY, USA) 1% non-essential amino acid solution (NEAA) (Biological Industries, Beit HaEmek, Israel) and 1% streptomycin-penicillin solution (Gibco™, NY, USA). The culture medium for HeLa cells is Minimum Essential Medium (MEM) (Gibco™, NY, USA) containing 10% FBS (Gibco™, NY, USA), 1% sodium pyruvate (Gibco™, NY, USA), 1% NEAA (Biological Industries, Beit HaEmek, Israel) and 1% streptomycin-penicillin (Gibco™, NY, USA). […] The absorbance of the samples was measured at the 4th hour, and cell viability calculated to evaluate the cytotoxicity of the antimicrobial peptides. The absorbance of the samples was measured with an ELISA reader (EPOCH™, BioTek instruments, Inc., Winooski, USA) at a wavelength of 475 nm. The absorbance value of the positive control group was regarded as 0% cell viability, and the absorbance value of the negative control group was regarded as 100% cell viability. […]

Compound	IC50 [1] [nM]	IC50 [2] [nM]	MBC (minimum bactericidal concentration) against MRSA [2] [µM]	MBC (minimum bactericidal concentration) against MDRAB [1] [µM]	cytotoxicity at 4 h, 2 μM (in vitro) [%]
CC(C)C[C@H](NC(=O)[C@H](CCCCN)NC(=O)[C@@H]1CCCN1C(=O)CNC(=O)[C@H](Cc1ccccc1)NC(=O)[C@H](CCCCN)NC(=O)[C@H](C)NC(=O)[C@@H]1CCCN1C(=O)[C@H](Cc1ccccc1)NC(=O)[C@H](CO)NC(=O)[C@H](C)NC(=O)[C@@H]1CCCN1C(=O)[C@H](CC(C)C)NC(=O)[C@@H](N)Cc1ccccc1)C(=O)N[C@@H](Cc1ccccc1)C(=O)N[C@@H](CS)C(=O)N[C@@H](CC(C)C)C(=O)N[C@H](C(=O)N[C@H](C(=O)N[C@@H](CCCCN)C(=O)N[C@@H](CCCCN)C(=O)N[C@@H](CS)C(=O)O)[C@@H](C)O)C(C)C [dK4] (H-FLPASFPAKFGPKLFCLVTKKC-OH; N-terminus and C-terminus assumed)	8000 to 10000	–	–	–	–
FLAIPSKPLKVAKPLGFALIIL [dK5]	20000 to 25000	10000 to 15000	30 to 40	–	–
IVRRIWRAWARRVRLVARIPAV [dK1]	~167	~195	0.39 to 0.78	0.667 to 1.33	–
RLIAAWRAVIRARVRARRAPIF [dK2]	200 to 250	~390	1.56 to 3.12	0.5 to 0.6	–
RPFIVRAWRRAVARRARAILPI [dK3]	195 to 390	1560 to 3120	3.12 to 4.5	0.78 to 1.56	50
